# Measured values published in patent US8119750B2, “Explosion taming surfactants for the production of perfluoropolymers” (3M Innovative Properties Company, priority 2006, dated 2012).
# Marks after values point to notes of the source that are not given here.
# Assay: Determination of bio-accumulation: urinary clearance pharmacokinetic study in rats
# Conditions: male Sprague Dawley rats, 73 micro Moles per kg oral gavage; for T ½ (h) (renal half-life): urine by fluorine NMR, exponential least squares curve fitting
Structure (SMILES),T ½ (h) (renal half-life),"T ½ (h) (renal half-life), based on elimination of the major metabolite C3F7—O—CHFCOO− (no parent compound observed in the urine)"
"N.O=C(O)C(F)(F)C(F)OC(F)(F)C(F)(F)C(F)(F)OC(F)(F)F (stereo not drawn) [Compound 1, CF3—O—CF2—CF2—CF2—O—CHF—CF2—COONH4]",12 h,
"N.O=C(O)C(F)OC(F)(F)C(F)(F)C(F)(F)OC(F)(F)F (stereo not drawn) [Compound 2, CF3—O—CF2—CF2—CF2—O—CHF—COONH4]",11 h,
"N.O=C(O)C(F)(F)C(F)OC(F)(F)C(F)(F)C(F)(F)F (stereo not drawn) [Compound 3, C3F7—O—CFH—CF2COONH4]",11 h,
"N.O=C(O)C(F)(F)C(F)(F)C(F)(F)C(F)(F)C(F)(F)OC(F)C(F)(F)F (stereo not drawn) [Compound 4, CF3—CFH—O—(CF2)5—COONH4]",24 h,
"N.O=C(O)C(F)(F)C(F)(F)C(F)(F)OC(F)C(F)(F)F (stereo not drawn) [Compound 5, CF3—CFH—O—(CF2)3—COONH4]",8 h,
"N.O=C(O)COC(F)(F)C(F)OC(F)(F)C(F)(F)C(F)(F)F (stereo not drawn) [Compound 6, C3F7—O—CFH—CF2—O—CH2—COONH4]",,13* h
"N.O=C(O)C(F)(F)C(F)(F)C(F)(F)C(F)(F)C(F)(F)C(F)(F)C(F)(F)F [Compound C-1, C7F15COONH4, reference compound]",~550 h,
"N.O=C(O)C(F)(F)OC(F)(F)C(F)(F)C(F)(F)OC(F)(F)F [Compound C-2, CF3—O—(CF2)3—O—CF2—COONH4, reference compound]",10 h,
"N.O=C(O)C(F)(F)C(F)(F)OC(F)(F)C(F)(F)C(F)(F)C(F)(F)F [Compound C-3, C4F9—O—CF2—CF2—COONH4, reference compound]",31 h,
